In US11000033B2, “Ketone or oxime compound, and herbicide” (NISSAN CHEMICAL CORPORATION, priority 2014, dated 2021):

How the values were obtained:
Assay type in all cases: in vivo
transplanted rice plant = assay: Test Example 1: effect on crop, application before weed generation in submerged conditions (symbol a); settings: application herbicide amount 320 g/ha
In short: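 Rice at 2.5 leaf stage transplanted into submerged soil (4 cm depth) sown with three weed species; herbicide applied before weed emergence.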

[1] = system: Echinochloa oryzacola Vasing.; assay: Test Example 2: herbicidal activity, application during weed generation in submerged conditions (symbol A); settings: Table 23; application herbicide amount 320 g/ha; grade 0-5 by criteria of Test Example 1
In short: (§1)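 Steps: fill pots with alluvial soil; add water to 4 cm depth; co-sow the three weeds; grow at 25° C. to 30° C. under glass; at 1–2 leaves, dose the floodwater with diluted emulsion; rate damage visually after 3 weeks.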

Scirpus juncoides = assay: Test Example 2: herbicidal activity, application during weed generation in submerged conditions (symbol B); settings: Table 23; application herbicide amount 320 g/ha; grade 0-5 by criteria of Test Example 1
In short: as §1

Leptochloa chinensis = assay: Test Example 3: herbicidal effect by foliage application, Wagner pot (symbol D); settings: application herbicide amount 320 g/ha; for D (Leptochloa chinensis) herbicidal effect grade: Table 24
In short: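 Post-emergence, paddy-type test: seedlings 14 d old in shallow-flooded (0.1–0.5 cm) alluvial soil, 25–30 °C greenhouse. Emulsion diluted to target rate, sprayed on leaves. Read-out: visual effect on each species at 3 weeks, per set criteria.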

Avena fatua = assay: Test Example 4: herbicidal effect by soil treatment (symbol I); settings: for I: Avena fatua, herbicidal effect grade: 320 g/ha
In short: (§2)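 Seeds were sown in sterilized diluvial soil, covered with about 1.5 cm of soil, and the soil surface was sprayed with a water-diluted emulsion of the compound at a predetermined rate. Plants grew in a greenhouse at 25° C. to 30° C.; effects were scored visually 3 weeks after application.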

Abutilon theophrasti [2] = assay: Test Example 4: herbicidal effect by soil treatment (symbol M); settings: for M: Abutilon theophrasti, herbicidal effect grade: 320 g/ha
In short: as §2

soybean = assay: Test Example 4: effect on crop by soil treatment (symbol d); settings: for d: soybean, effect grade on crop: 320 g/ha
In short: (§3)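 Crop seed is sown in spots together with several weed species in a box of sterilized diluvial soil. It is covered by about 1.5 cm of soil and kept in a greenhouse held between 25° C. and 30° C.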

beet [3] = assay: Test Example 4: effect on crop by soil treatment (symbol f); settings: for f: beet, effect grade on crop: 320 g/ha
In short: as §3

Setaria viridis = assay: Test Example 5: herbicidal effect by foliage application, plastic box (symbol G); settings: 320 g/ha, 3 weeks after application
In short: (§4)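 Leaf-applied emulsion, water-diluted to a preset herbicide dose, on two-week-old seedlings raised in a 25° C. to 30° C. greenhouse; injury rated at 3 weeks using earlier criteria.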

Lolium multiflorum Lam. = assay: Test Example 5: herbicidal effect by foliage application, plastic box (symbol K); settings: 320 g/ha, 3 weeks after application
In short: as §4

Abutilon theophrasti [4] = assay: Test Example 5: herbicidal effect by foliage application, plastic box (symbol M); settings: 320 g/ha, 3 weeks after application
In short: as §4

beet [5] = assay: Test Example 5: effect on crop by foliage application, plastic box (symbol f); settings: 320 g/ha, 3 weeks after application
In short: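 Box culture: sterile diluvial soil, seeds spot-sown, ~1.5 cm cover, raised under glass at 25–30° C.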

[6] = application herbicide amount 320 g/ha

In the case of `CON=C(C)CC1CC(OC(=O)COc2ccc(C=O)cc2)=C(c2c(C)cc(C)cc2C)C1=O` (stereo not drawn) [1-079], the “Effect grade on crop, a: transplanted rice plant” value (transplanted rice plant) is reported as 5 (Herbicidal ratio of 90% or more (almost completely withered)), the “Herbicidal effect grade, A: Echinochloa oryzacola Vasing.” value [1] is reported as 5 (Herbicidal ratio of 90% or more (almost completely withered)) and the “Herbicidal effect grade, B: Scirpus juncoides” value (from here on “Herbicidal effect grade, B”) (Scirpus juncoides) is reported as 4 (Herbicidal ratio of 70% or higher and lower than 90%). For the same compound, the “herbicidal effect on D (Leptochloa chinensis), grade 0-5” value (“herbicidal effect on D” for short) (Leptochloa chinensis) was 5 (Herbicidal ratio of 90% or more (almost completely withered)), the “I: Avena fatua, herbicidal effect grade” value (Avena fatua) was 3 (Herbicidal ratio of 40% or higher and lower than 70%) and the “M: Abutilon theophrasti, herbicidal effect grade” value (Abutilon theophrasti [2]) was 5 (Herbicidal ratio of 90% or more (almost completely withered)). For the same compound, the “d: soybean, effect grade on crop” value (soybean) was 1 (Herbicidal ratio of 5% or higher and lower than 20%), the “f: beet, effect grade on crop” value (beet [3]) was 0 (Herbicidal ratio of 5% or lower (almost no effect)) and the “G: Setaria viridis, herbicidal effect (criteria 0-5)” value (“G: Setaria viridis … (criteria 0-5)” below) (Setaria viridis) was 5 (Herbicidal ratio of 90% or more (almost completely withered)). The “K: Lolium multiflorum Lam., herbicidal effect (criteria 0-5)” value (Lolium multiflorum Lam.) was 5 (Herbicidal ratio of 90% or more (almost completely withered)), the “M: Abutilon theophrasti, herbicidal effect (criteria 0-5)” value (Abutilon theophrasti [4]) was 4 (Herbicidal ratio of 70% or higher and lower than 90%) and the “f: beet, effect on crop (criteria 0-5)” value (beet [5]) was 0 (Herbicidal ratio of 5% or lower (almost no effect)).

`CCCC=CC(=O)OC1=C(c2c(C)cc(C)cc2C)C(=O)C(CC(C)=NOC)C1` (stereo not drawn) [1-090] was tested, and the “Effect grade on crop, a: transplanted rice plant” value (transplanted rice plant) was 5 (Herbicidal ratio of 90% or more (almost completely withered)), the “Herbicidal effect grade, A: Echinochloa oryzacola Vasing.” value [1] was 5 (Herbicidal ratio of 90% or more (almost completely withered)) and the “Herbicidal effect grade, B” value (Scirpus juncoides) was 5 (Herbicidal ratio of 90% or more (almost completely withered)). The “herbicidal effect on D” value (Leptochloa chinensis) was 5 (Herbicidal ratio of 90% or more (almost completely withered)), the “I: Avena fatua, herbicidal effect grade” value (Avena fatua) was 3 (Herbicidal ratio of 40% or higher and lower than 70%) and the “M: Abutilon theophrasti, herbicidal effect grade” value (Abutilon theophrasti [2]) was 4 (Herbicidal ratio of 70% or higher and lower than 90%). For the same compound, the “d: soybean, effect grade on crop” value (soybean) was 0 (Herbicidal ratio of 5% or lower (almost no effect)), the “f: beet, effect grade on crop” value (beet [3]) was 0 (Herbicidal ratio of 5% or lower (almost no effect)) and the “G: Setaria viridis … (criteria 0-5)” value (Setaria viridis) was 5 (Herbicidal ratio of 90% or more (almost completely withered)). The “K: Lolium multiflorum Lam., herbicidal effect (criteria 0-5)” value (Lolium multiflorum Lam.) was 5 (Herbicidal ratio of 90% or more (almost completely withered)), the “M: Abutilon theophrasti, herbicidal effect (criteria 0-5)” value (Abutilon theophrasti [4]) was 4 (Herbicidal ratio of 70% or higher and lower than 90%) and the “f: beet, effect on crop (criteria 0-5)” value (beet [5]) was 0 (Herbicidal ratio of 5% or lower (almost no effect)).

In the case of `CC#Cc1cc(C)c(C2=C(OC(=O)COc3ccccc3)CC(CC(=NOC)C(C)C)C2=O)c(C)c1` (stereo not drawn) [9-003], the “Effect grade on crop, a: transplanted rice plant” value (transplanted rice plant) is reported as 5 (Herbicidal ratio of 90% or more (almost completely withered)), the “Herbicidal effect grade, A: Echinochloa oryzacola Vasing.” value [1] is reported as 5 (Herbicidal ratio of 90% or more (almost completely withered)) and the “Herbicidal effect grade, B” value (Scirpus juncoides) is reported as 4 (Herbicidal ratio of 70% or higher and lower than 90%). For the same compound, the “D (Leptochloa chinensis) herbicidal effect grade” value (Leptochloa chinensis) was 5 (Herbicidal ratio of 90% or more (almost completely withered)), the “Herbicidal effect grade, I: Avena fatua” value (Avena fatua; [6]) was 3 (Herbicidal ratio of 40% or higher and lower than 70%) and the “Herbicidal effect grade, M: Abutilon theophrasti” value (Abutilon theophrasti [2]; [6]) was 0 (Herbicidal ratio of 5% or lower (almost no effect)). For the same compound, the “Effect on crop grade, d: soybean” value (soybean; [6]) was 0 (Herbicidal ratio of 5% or lower (almost no effect)), the “Effect on crop grade, f: beet” value (beet [3]; [6]) was 0 (Herbicidal ratio of 5% or lower (almost no effect)) and the “G: Setaria viridis, herbicidal effect grade” value (Setaria viridis) was 5 (Herbicidal ratio of 90% or more (almost completely withered)). For the same compound, the “K: Lolium multiflorum Lam., herbicidal effect grade” value (Lolium multiflorum Lam.) was 5 (Herbicidal ratio of 90% or more (almost completely withered)), the “M: Abutilon theophrasti, herbicidal effect grade” value (Abutilon theophrasti [4]) was 4 (Herbicidal ratio of 70% or higher and lower than 90%) and the “f: beet, effect on crop grade” value (beet [5]) was 1 (Herbicidal ratio of 5% or higher and lower than 20%).

`CON=C(CC1CC(O)=C(c2c(C)cc(Br)cc2C)C1=O)C1CC1` (stereo not drawn) [9-002] was tested, and the “Effect grade on crop, a: transplanted rice plant” value (transplanted rice plant) was 5 (Herbicidal ratio of 90% or more (almost completely withered)), the “Herbicidal effect grade, A: Echinochloa oryzacola Vasing.” value [1] was 5 (Herbicidal ratio of 90% or more (almost completely withered)) and the “Herbicidal effect grade, B” value (Scirpus juncoides) was 0 (Herbicidal ratio of 5% or lower (almost no effect)). The “D (Leptochloa chinensis) herbicidal effect grade” value (Leptochloa chinensis) was 5 (Herbicidal ratio of 90% or more (almost completely withered)), the “Herbicidal effect grade, I: Avena fatua” value (Avena fatua; [6]) was 3 (Herbicidal ratio of 40% or higher and lower than 70%) and the “Herbicidal effect grade, M: Abutilon theophrasti” value (Abutilon theophrasti [2]; [6]) was 0 (Herbicidal ratio of 5% or lower (almost no effect)). For the same compound, the “Effect on crop grade, d: soybean” value (soybean; [6]) was 0 (Herbicidal ratio of 5% or lower (almost no effect)), the “Effect on crop grade, f: beet” value (beet [3]; [6]) was 0 (Herbicidal ratio of 5% or lower (almost no effect)) and the “G: Setaria viridis, herbicidal effect grade” value (Setaria viridis) was 5 (Herbicidal ratio of 90% or more (almost completely withered)). For the same compound, the “K: Lolium multiflorum Lam., herbicidal effect grade” value (Lolium multiflorum Lam.) was 5 (Herbicidal ratio of 90% or more (almost completely withered)), the “M: Abutilon theophrasti, herbicidal effect grade” value (Abutilon theophrasti [4]) was 4 (Herbicidal ratio of 70% or higher and lower than 90%) and the “f: beet, effect on crop grade” value (beet [5]) was 0 (Herbicidal ratio of 5% or lower (almost no effect)).

In the case of `CC(CC1CC(O)=C(c2c(C)cc(C)cc2C)C1=O)=NOC(C)C` (stereo not drawn) [1-052], the “Effect grade on crop, a: transplanted rice plant” value (transplanted rice plant) is reported as 5 (Herbicidal ratio of 90% or more (almost completely withered)), the “Herbicidal effect grade, A: Echinochloa oryzacola Vasing.” value [1] is reported as 5 (Herbicidal ratio of 90% or more (almost completely withered)) and the “Herbicidal effect grade, B” value (Scirpus juncoides) is reported as 2 (Herbicidal ratio of 20% or higher and lower than 40%). The “herbicidal effect on D” value (Leptochloa chinensis) was 5 (Herbicidal ratio of 90% or more (almost completely withered)), the “I (Avena fatua) herbicidal effect grade” value (Avena fatua; [6]) was 4 (Herbicidal ratio of 70% or higher and lower than 90%) and the “M (Abutilon theophrasti) herbicidal effect grade” value (Abutilon theophrasti [2]; [6]) was 4 (Herbicidal ratio of 70% or higher and lower than 90%). For the same compound, the “d (soybean) effect on crop grade” value (soybean; [6]) was 0 (Herbicidal ratio of 5% or lower (almost no effect)), the “f (beet) effect on crop grade” value (beet [3]; [6]) was 0 (Herbicidal ratio of 5% or lower (almost no effect)) and the “G: Setaria viridis, herbicidal effect grade” value (Setaria viridis) was 5 (Herbicidal ratio of 90% or more (almost completely withered)). The “K: Lolium multiflorum Lam., herbicidal effect grade” value (Lolium multiflorum Lam.) was 5 (Herbicidal ratio of 90% or more (almost completely withered)), the “M: Abutilon theophrasti, herbicidal effect grade” value (Abutilon theophrasti [4]) was 3 (Herbicidal ratio of 40% or higher and lower than 70%) and the “f: beet, effect on crop grade” value (beet [5]) was 0 (Herbicidal ratio of 5% or lower (almost no effect)).

For `CON=C(C)CC1CC(OC(=O)C2=CCCC2)=C(c2c(C)cc(C)cc2C)C1=O` (stereo not drawn) [1-088], the “Effect grade on crop, a: transplanted rice plant” value (transplanted rice plant) was 5 (Herbicidal ratio of 90% or more (almost completely withered)), the “Herbicidal effect grade, A: Echinochloa oryzacola Vasing.” value [1] was 5 (Herbicidal ratio of 90% or more (almost completely withered)) and the “Herbicidal effect grade, B” value (Scirpus juncoides) was 5 (Herbicidal ratio of 90% or more (almost completely withered)). The “herbicidal effect on D” value (Leptochloa chinensis) was 5 (Herbicidal ratio of 90% or more (almost completely withered)), the “I: Avena fatua, herbicidal effect grade” value (Avena fatua) was 3 (Herbicidal ratio of 40% or higher and lower than 70%) and the “M: Abutilon theophrasti, herbicidal effect grade” value (Abutilon theophrasti [2]) was 0 (Herbicidal ratio of 5% or lower (almost no effect)). For the same compound, the “d: soybean, effect grade on crop” value (soybean) was 0 (Herbicidal ratio of 5% or lower (almost no effect)), the “f: beet, effect grade on crop” value (beet [3]) was 0 (Herbicidal ratio of 5% or lower (almost no effect)) and the “G: Setaria viridis … (criteria 0-5)” value (Setaria viridis) was 5 (Herbicidal ratio of 90% or more (almost completely withered)). The “K: Lolium multiflorum Lam., herbicidal effect (criteria 0-5)” value (Lolium multiflorum Lam.) was 5 (Herbicidal ratio of 90% or more (almost completely withered)), the “M: Abutilon theophrasti, herbicidal effect (criteria 0-5)” value (Abutilon theophrasti [4]) was 4 (Herbicidal ratio of 70% or higher and lower than 90%) and the “f: beet, effect on crop (criteria 0-5)” value (beet [5]) was 0 (Herbicidal ratio of 5% or lower (almost no effect)).
